# Tests used:
# [1] = Tmax in Sprague-Dawley rat at 10 mg/kg, po by LC-MS/MS method; assay type: ADME, organism-based; settings: in vivo
# [2] = biological target: Serine/threonine-protein kinase Nek6 (Homo sapiens) (UniProt Q9HC98); assay: Inhibition of wild-type human full length NEK6 (M8 to T313 residues) expressed in bacterial expression system assessed as residual activity at 1 uM by Kinomescan method relative to control
# [3] = biological target: Serine/threonine-protein kinase TAO1 (Homo sapiens) (UniProt Q7L7X3); assay: Inhibition of wild-type human partial length TAOK1 (M1 to A320 residues) expressed in mammalian expression system assessed as residual activity at 1 uM by Kinomescan method relative to control
# [4] = biological target: Mitogen-activated protein kinase 1 (Homo sapiens) (UniProt P28482); assay: Inhibition of wild-type human full length ERK2 (M1 to S360 residues) expressed in bacterial expression system assessed as residual activity at 1 uM by Kinomescan method relative to control
# Mitogen-activated protein kinase 1 (Homo sapiens), sequence (P28482 whole entry, the tested form may be a part): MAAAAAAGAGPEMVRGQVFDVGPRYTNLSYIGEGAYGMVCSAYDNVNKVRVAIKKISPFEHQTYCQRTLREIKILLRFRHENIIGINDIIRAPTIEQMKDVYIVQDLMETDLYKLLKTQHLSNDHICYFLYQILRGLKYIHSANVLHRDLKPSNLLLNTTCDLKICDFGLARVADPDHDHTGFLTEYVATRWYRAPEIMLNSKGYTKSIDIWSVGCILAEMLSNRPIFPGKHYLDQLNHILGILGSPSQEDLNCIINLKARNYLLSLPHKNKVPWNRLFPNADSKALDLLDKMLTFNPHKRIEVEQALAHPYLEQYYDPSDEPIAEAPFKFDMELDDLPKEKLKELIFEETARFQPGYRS
# [5] = biological target: Serine/threonine-protein kinase 24 (Homo sapiens) (UniProt Q9Y6E0); assay: Inhibition of wild-type human partial length MST3 (A30 to S311 residues) expressed in bacterial expression system assessed as residual activity at 1 uM by Kinomescan method relative to control
# [6] = biological target: Platelet-derived growth factor receptor alpha (Homo sapiens) (UniProt P16234); assay: Inhibition of wild-type human partial length PDGFRA (V575 to D1002 residues) expressed in mammalian expression system assessed as residual activity at 1 uM by Kinomescan method relative to control
# [7] = tested on: Tyrosine-protein kinase ABL1 (Homo sapiens), P00519 [F317I]; assay: Inhibition of human non-phosphorylated ABL1 F317I mutant (S229 to K512 residues) expressed in mammalian expression system assessed as residual activity at 1 uM by Kinomescan method relative to control
# [8] = biological target: Dual specificity tyrosine-phosphorylation-regulated kinase 2 (Homo sapiens) (UniProt Q92630); assay: Inhibition of wild-type human full length DYRK2 (M1 to S528 residues) expressed in mammalian expression system assessed as residual activity at 1 uM by Kinomescan method relative to control
# [9] = biological target: Mast/stem cell growth factor receptor Kit (Homo sapiens) (UniProt P10721); assay: Inhibition of wild-type human partial length KIT (I571 to D952 residues) expressed in bacterial expression system assessed as residual activity at 1 uM by Kinomescan method relative to control
# [10] = biological target: Non-receptor tyrosine-protein kinase TYK2 (Homo sapiens) (UniProt P29597); assay: Inhibition of wild-type human partial length TYK2 JH2 pseudokinase domain (G556 to D888 residues) expressed in mammalian expression system assessed as residual activity at 1 uM by Kinomescan method relative to control
# [11] = biological target: Bone morphogenetic protein receptor type-1B (Homo sapiens) (UniProt O00238); assay: Inhibition of wild-type human partial length BMPR1B (D178 to L502 residues) expressed in mammalian expression system assessed as residual activity at 1 uM by Kinomescan method relative to control
# [12] = biological target: SRSF protein kinase 2 (Homo sapiens) (UniProt P78362); assay: Inhibition of wild-type human full length SRPK2 (M1 to S686 residues) expressed in bacterial expression system assessed as residual activity at 1 uM by Kinomescan method relative to control
# [13] = biological target: Phosphatidylinositol 4-phosphate 3-kinase C2 domain-containing subunit beta (Homo sapiens) (UniProt O00750); assay: Inhibition of wild-type human partial length PIK3C2B (M1 to L1634 residues) expressed in mammalian expression system assessed as residual activity at 1 uM by Kinomescan method relative to control
# [14] = tested on: Mast/stem cell growth factor receptor Kit (Homo sapiens), P10721 [L576P]; assay: Inhibition of human partial length KIT L576P mutant (Y545 to D952 residues) expressed in bacterial expression system assessed as residual activity at 1 uM by Kinomescan method relative to control
# [15] = biological target: Atypical kinase COQ8B, mitochondrial (Homo sapiens) (UniProt Q96D53); assay: Inhibition of wild-type human full length ADCK4 (M1 to S544 residues) expressed in bacterial expression system assessed as residual activity at 1 uM by Kinomescan method relative to control
# [16] = biological target: Citron Rho-interacting kinase (Homo sapiens) (UniProt O14578); assay: Inhibition of wild-type human partial length CIT (M68 to E432 residues) expressed in bacterial expression system assessed as residual activity at 1 uM by Kinomescan method relative to control
# Citron Rho-interacting kinase (Homo sapiens), sequence (O14578 whole entry, the tested form may be a part): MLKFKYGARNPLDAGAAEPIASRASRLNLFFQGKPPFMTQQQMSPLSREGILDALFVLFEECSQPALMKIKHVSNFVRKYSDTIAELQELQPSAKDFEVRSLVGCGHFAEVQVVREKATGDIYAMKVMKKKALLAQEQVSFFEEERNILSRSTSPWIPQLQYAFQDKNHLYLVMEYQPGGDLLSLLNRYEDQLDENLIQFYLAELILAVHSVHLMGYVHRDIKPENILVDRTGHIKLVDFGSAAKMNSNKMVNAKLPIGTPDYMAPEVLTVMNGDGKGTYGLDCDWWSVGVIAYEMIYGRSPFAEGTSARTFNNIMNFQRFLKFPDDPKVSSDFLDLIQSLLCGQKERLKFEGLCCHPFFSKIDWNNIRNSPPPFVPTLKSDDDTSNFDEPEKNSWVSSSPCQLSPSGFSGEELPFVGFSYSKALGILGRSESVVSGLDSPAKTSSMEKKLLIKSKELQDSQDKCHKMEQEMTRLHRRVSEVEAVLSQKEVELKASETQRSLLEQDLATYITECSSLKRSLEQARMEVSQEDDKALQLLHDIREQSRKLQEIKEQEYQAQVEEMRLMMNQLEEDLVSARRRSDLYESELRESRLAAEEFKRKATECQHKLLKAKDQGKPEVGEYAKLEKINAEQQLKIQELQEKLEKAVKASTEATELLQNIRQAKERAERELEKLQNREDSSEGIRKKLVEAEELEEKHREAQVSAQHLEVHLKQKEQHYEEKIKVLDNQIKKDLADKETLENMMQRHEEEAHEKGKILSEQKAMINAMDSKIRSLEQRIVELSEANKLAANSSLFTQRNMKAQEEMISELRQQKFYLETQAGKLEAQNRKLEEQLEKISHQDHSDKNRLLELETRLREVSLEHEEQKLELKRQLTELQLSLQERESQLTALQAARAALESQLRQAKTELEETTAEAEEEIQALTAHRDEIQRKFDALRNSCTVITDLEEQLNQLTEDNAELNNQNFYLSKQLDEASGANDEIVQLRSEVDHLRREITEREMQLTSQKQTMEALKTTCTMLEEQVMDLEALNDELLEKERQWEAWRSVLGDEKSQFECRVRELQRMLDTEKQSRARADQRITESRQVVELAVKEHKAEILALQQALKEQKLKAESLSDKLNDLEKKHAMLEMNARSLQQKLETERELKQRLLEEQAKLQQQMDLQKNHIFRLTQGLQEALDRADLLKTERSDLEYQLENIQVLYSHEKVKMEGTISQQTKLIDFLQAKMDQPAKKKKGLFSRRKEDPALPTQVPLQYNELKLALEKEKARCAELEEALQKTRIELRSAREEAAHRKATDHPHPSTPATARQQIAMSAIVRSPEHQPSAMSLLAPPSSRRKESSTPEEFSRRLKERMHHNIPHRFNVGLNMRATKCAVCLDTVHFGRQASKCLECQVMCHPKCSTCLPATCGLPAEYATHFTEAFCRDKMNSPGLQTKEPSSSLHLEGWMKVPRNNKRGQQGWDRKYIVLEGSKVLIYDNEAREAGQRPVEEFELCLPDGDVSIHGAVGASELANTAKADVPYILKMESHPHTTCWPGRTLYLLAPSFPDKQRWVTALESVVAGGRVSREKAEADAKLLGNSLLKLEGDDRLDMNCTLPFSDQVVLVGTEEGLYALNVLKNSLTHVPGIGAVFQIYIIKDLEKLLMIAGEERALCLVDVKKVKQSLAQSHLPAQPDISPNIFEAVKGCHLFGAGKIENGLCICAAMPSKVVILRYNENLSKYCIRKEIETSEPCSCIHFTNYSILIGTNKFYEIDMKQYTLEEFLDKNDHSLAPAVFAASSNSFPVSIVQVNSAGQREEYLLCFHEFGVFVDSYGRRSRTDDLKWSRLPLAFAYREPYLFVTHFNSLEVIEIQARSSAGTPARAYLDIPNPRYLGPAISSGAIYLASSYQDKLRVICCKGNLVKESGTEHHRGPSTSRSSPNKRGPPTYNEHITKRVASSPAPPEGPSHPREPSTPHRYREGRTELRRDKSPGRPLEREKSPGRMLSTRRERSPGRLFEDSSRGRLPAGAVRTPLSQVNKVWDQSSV
# [17] = tested on: Epidermal growth factor receptor (Homo sapiens), P00533 [UNDEFINED MUTATION]; assay: Inhibition of human partial length EGFR L747-T751del/Sins mutant expressed in bacterial expression system assessed as residual activity at 1 uM by Kinomescan method relative to control
# Epidermal growth factor receptor (Homo sapiens), P00533 [UNDEFINED MUTATION], sequence (P00533 whole entry, looked up, stated change not applied, the tested form may be a part): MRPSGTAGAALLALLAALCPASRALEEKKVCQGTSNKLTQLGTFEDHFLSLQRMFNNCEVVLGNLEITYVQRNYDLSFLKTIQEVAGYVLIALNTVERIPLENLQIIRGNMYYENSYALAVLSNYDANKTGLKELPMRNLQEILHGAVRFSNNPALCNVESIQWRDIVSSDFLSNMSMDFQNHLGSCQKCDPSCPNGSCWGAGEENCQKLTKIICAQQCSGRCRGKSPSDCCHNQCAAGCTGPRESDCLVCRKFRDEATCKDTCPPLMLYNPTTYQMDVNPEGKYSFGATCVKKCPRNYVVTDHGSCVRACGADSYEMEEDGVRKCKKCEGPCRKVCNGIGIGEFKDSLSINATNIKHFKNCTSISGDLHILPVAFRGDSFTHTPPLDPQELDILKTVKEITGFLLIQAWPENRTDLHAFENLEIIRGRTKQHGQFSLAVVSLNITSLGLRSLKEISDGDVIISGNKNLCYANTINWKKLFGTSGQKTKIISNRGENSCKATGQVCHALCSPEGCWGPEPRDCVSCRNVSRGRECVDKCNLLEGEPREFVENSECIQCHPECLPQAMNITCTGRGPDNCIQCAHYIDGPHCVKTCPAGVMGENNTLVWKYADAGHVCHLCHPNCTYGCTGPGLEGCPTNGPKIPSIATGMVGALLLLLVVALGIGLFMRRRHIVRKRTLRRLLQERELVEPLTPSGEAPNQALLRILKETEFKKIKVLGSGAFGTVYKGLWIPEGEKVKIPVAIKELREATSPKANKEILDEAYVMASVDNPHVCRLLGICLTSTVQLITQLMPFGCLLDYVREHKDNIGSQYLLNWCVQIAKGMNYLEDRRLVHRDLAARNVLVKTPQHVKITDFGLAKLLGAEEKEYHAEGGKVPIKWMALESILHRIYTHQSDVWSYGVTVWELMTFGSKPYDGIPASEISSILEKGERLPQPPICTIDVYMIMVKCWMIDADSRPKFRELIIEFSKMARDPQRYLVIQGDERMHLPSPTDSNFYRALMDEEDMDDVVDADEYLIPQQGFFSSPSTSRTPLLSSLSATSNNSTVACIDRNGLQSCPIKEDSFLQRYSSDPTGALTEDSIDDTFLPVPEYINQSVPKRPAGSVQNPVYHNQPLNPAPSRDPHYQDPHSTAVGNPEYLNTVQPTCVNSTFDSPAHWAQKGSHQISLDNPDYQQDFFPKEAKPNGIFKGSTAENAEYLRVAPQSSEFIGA
# [18] = biological target: Casein kinase II subunit alpha (Homo sapiens) (UniProt P68400); assay: Inhibition of wild-type human full length CSNK2A1 (M1 to Q391 residues) expressed in mammalian expression system assessed as residual activity at 1 uM by Kinomescan method relative to control
# [19] = biological target: Ribosomal protein S6 kinase alpha-5 (Homo sapiens) (UniProt O75582); assay: Inhibition of wild-type human partial length N-terminal RPS6KA5 kinase domain 1 expressed in bacterial expression system assessed as residual activity at 1 uM by Kinomescan method relative to control
# [20] = biological target: Phosphatidylinositol 4,5-bisphosphate 3-kinase catalytic subunit gamma isoform (Homo sapiens) (UniProt P48736); assay: Inhibition of wild-type human partial length PIK3CG (S144 to A1102 residues) expressed in mammalian expression system assessed as residual activity at 1 uM by Kinomescan method relative to control
# MV4-11 = assay: Growth inhibition of human MV411 cells; assay type: functional; settings: Homo sapiens, MV4-11
# [21] = tested on: ALK tyrosine kinase receptor (Homo sapiens), Q9UM73 [L1196M]; assay: Inhibition of […] human partial length ALK L1196M mutant (I1088 to E1409 residues) expressed in mammalian expression system assessed as residual activity at 1 uM by Kinomescan method relative to control
# [22] = biological target: Ephrin type-A receptor 4 (Homo sapiens) (UniProt P54764); assay: Inhibition of wild-type human partial length EPHA4 (T601 to R897 residues) expressed in bacterial expression system assessed as residual activity at 1 uM by Kinomescan method relative to control
# [23] = tested on: Tyrosine-protein kinase ABL1 (Homo sapiens), P00519 [Y253F]; assay: Inhibition of human phosphorylated ABL1 Y253F mutant (S229 to K512 residues) expressed in mammalian expression system assessed as residual activity at 1 uM by Kinomescan method relative to control
# [24] = biological target: Tyrosine-protein kinase receptor TYRO3 (Homo sapiens) (UniProt Q06418); assay: Inhibition of wild-type human partial length TYRO3 (S497 to T814 residues) expressed in bacterial expression system assessed as residual activity at 1 uM by Kinomescan method relative to control
# Tyrosine-protein kinase receptor TYRO3 (Homo sapiens), sequence (Q06418 whole entry, the tested form may be a part): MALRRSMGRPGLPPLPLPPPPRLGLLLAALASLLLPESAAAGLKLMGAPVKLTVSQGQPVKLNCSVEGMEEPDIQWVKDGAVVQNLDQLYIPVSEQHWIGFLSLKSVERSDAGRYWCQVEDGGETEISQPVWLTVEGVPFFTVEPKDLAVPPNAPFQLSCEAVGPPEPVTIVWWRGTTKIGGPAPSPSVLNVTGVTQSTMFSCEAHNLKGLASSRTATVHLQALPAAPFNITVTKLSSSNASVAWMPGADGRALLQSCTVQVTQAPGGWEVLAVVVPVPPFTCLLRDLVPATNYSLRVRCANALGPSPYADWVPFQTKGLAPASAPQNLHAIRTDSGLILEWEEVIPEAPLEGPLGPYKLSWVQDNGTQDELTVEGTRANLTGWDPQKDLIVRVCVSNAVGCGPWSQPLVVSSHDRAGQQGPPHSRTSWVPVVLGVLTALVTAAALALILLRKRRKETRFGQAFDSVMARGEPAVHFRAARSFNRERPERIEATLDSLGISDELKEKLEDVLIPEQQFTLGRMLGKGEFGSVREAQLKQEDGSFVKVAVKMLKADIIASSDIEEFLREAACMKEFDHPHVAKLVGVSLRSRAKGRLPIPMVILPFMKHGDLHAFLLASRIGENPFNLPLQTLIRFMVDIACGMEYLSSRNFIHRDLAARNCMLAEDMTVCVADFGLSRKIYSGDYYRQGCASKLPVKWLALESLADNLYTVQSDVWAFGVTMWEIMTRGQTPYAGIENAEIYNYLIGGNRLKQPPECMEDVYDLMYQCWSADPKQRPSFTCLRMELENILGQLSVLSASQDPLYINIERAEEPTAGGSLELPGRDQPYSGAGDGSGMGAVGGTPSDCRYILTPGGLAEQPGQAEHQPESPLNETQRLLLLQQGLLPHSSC
# [25] = biological target: Serine/threonine-protein kinase WNK3 (Homo sapiens) (UniProt Q9BYP7); assay: Inhibition of wild-type human partial length WNK3 (M1 to D434 residues) expressed in mammalian expression system assessed as residual activity at 1 uM by Kinomescan method relative to control
# Serine/threonine-protein kinase Nek6 (Homo sapiens), sequence (Q9HC98 whole entry, the tested form may be a part): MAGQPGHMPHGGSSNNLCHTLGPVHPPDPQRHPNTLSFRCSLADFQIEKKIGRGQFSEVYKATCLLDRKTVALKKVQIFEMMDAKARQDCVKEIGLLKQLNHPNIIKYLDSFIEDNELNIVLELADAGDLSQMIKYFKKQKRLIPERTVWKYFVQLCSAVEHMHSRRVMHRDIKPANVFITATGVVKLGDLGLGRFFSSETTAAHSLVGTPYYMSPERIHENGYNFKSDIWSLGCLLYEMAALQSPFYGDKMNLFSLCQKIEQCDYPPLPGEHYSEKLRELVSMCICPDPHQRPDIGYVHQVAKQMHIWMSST
smiles,measurement,setting,value
C=CC(=O)Nc1cc(Nc2cc(-c3cccc(NC(=O)c4ccc(C(C)(C)C)cc4)c3C)cn(C)c2=O)ccc1C(=O)N1CCOCC1,Tmax,[1],30 min
same,Activity,[2],98%
same,Activity,[3],100%
same,Activity,[4],91%
same,Activity,[5],98%
same,Activity,[6],100%
same,Activity,[7],78%
same,Activity,[8],97%
same,Activity,[9],98%
same,Activity,[10],86%
same,Activity,[11],100%
same,Activity,[12],94%
same,Activity,[13],92%
same,Activity,[14],97%
same,Activity,[15],100%
same,Activity,[16],97%
same,Activity,[17],100%
same,Activity,[18],100%
same,Activity,[19],97%
same,Activity,[20],100%
same,GI50,MV4-11,2100 nM
same,Activity,[21],96%
same,Activity,[22],83%
same,Activity,[23],97%
same,Activity,[24],75%
same,Activity,[25],94%
